pIC50: −log10 of the molar value. Entries after “also recorded” stand apart in the source; their conditions may differ.

One data set is described as follows: Water solubility. The format is physicochemical. The following applies: in distilled water. As for the experimental part: The synthesis of dicyanocobinamide (Cbi) was performed according to previously reported methods.[59] Briefly, to a 10 mL microwave reaction vessel containing a magnetic stir bar were added B12 (cyanocobalamin) (303.8 mg, 0.225 mmol) (see Figures S1–S6), sodium cyanide (NaCN) (36.9 mg, 0.7096 mmol), and 5 mL of EtOH, and the vessel was sealed. The reaction was heated to 120 °C for 10 min. Following completion of the microwave reaction, the remaining solution was transferred and diluted using isopropyl alcohol (iPrOH). The reaction was purified utilizing a normal-phase silica column. The reaction was eluted using 100% methanol (MeOH). The product eluted as a purple product. The isolated product was precipitated utilizing diethyl ether (Et2O) and allowed to dry producing a solid, purple product, 2 (see Figure 2), in 80% yield (187.4 mg, 0.1795 mmol). Solubility was measured to be 400 mg/mL in distilled water.

A further data set has as its system shrews. The experiment in a line: Food intake and body weight (energy balance) in shrews. It is filed as in vivo, Suncus murinus. Particulars: 5 nmol/kg IP, single dose, n = 10 shrews.
Data set [1] deals with human glucagon like peptide-1 receptor (human) (UniProt P43220).
In another data set the test system is patients. The following applies: over ∼1 year; cited from earlier work.
Another data set concerns the target rat GLP-1R (rat) (UniProt P32301).
For data set [2], the target named is human glucagon like peptide-1 receptor (human) (UniProt P43220). The experiment in a line: AlphaScreen or HTRF; Taglite fluorescence competitive binding assay (Euroscreen Fast, Cat No. FAST0154B) on CHO-K1 cells at the human GLP-1R; agonist tracer GLP-1red at 4 nM, reference competitor nEx-4; nine concentrations from 1 pM to 1 uM, duplicate independent runs.

human glucagon like peptide-1 receptor (human), sequence (P43220 24-463): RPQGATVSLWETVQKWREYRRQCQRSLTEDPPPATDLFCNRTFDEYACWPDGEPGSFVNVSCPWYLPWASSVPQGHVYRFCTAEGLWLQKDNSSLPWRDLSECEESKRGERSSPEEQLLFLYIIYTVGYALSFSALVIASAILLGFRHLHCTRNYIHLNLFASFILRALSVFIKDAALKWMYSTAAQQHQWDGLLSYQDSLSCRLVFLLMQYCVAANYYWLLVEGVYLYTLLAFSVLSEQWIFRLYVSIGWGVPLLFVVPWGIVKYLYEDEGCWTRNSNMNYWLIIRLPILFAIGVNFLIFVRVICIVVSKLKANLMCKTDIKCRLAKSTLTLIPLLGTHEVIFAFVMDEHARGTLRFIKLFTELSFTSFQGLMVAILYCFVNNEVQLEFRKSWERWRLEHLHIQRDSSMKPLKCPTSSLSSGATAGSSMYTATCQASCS
rat GLP-1R (rat), sequence (P32301 22-463): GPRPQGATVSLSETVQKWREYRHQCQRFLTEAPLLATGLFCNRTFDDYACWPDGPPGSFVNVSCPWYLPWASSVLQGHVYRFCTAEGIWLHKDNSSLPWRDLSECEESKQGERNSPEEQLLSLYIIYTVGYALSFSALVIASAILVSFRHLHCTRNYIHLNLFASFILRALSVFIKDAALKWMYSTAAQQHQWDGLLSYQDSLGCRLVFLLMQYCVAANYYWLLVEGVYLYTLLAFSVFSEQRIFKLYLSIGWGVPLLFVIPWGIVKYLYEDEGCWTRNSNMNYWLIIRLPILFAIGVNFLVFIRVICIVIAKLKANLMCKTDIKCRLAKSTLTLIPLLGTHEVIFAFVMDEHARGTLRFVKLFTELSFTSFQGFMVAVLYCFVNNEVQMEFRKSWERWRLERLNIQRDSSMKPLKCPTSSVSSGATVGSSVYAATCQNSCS
Protocol for shrews: Food intake was evaluated using our custom-made feedometers, consisting of a standard plexiglass rodent housing cage (29 × 19 × 12.7 cm) with mounted food hoppers resting on a plexiglass cup (to account for spillage). Shrews had ad libitum access to powdered food through a circular (3 cm diameter) hole in the cage. Food was removed 1 h prior to the dark onset. […] Food intake was manually measured at 6, 24, and 48 h post injection. BW was measured at 0, 24, and 48 h.

In the data set “Water solubility”, `C/C1=C2/[N-]C([C@H](CC(N)=O)[C@@]2(C)CCC(=O)NCC(C)O)[C@]2(C)N=C(/C(C)=C3N=C(/C=C4N=C1[C@@H](CCC(N)=O)C\4(C)C)[C@@H](CCC(N)=O)[C@]\3(C)CC(N)=O)[C@@H](CCC(N)=O)[C@]2(C)CC(N)=O.[C-]#N.[C-]#N.[Co]` (stereo partly drawn) [compound 2, dicyanocobinamide] returned a Solubility of 400 mg/mL. Consider Cbi-Ex4 [compound 1], for which, in the data set on shrews (6, 24, 48 h (72 h in Figure 6D)), the Food intake result is “had no effect on food intake; also recorded: had no impact on feeding”. Moreover, the Body weight result in the data set with shrews (24 h) is listed as “No significant changes in body weight; also recorded: not observed”.

For “exendin-4 with K12 azido modification (from UniProt P26349 48-87) (peptide)”, in data set [1], the EC50 of agonism: cAMP FRET reporter H188 in HEK293 cells stably expressing the human GLP-1R worked out at 12.5 pM. The same measure, in the same setting: for “exendin-4 with an azido-lysine added as residue 40 (from UniProt P26349 48-87) (peptide)” the value was 10.4 pM. Take “liraglutide (HAEGTFTSDVSSYLEGQAAKEFIAWLVRGRG; chains of the INN, looked up) [GLP-1R agonist]”: the Body weight reduction in the data set on patients was 5–6%.

In the data set with rat GLP-1R (rat), “native Exendin-4 (from UniProt P26349 48-87) (peptide)” had an EC50 of functional agonism at the rat GLP-1R of 48 pM. The same compound gave a pIC50 in data set [2] of 8.30.

In the case of semaglutide, in the data set on patients, the Body weight reduction was 10–12%.

As a reminder, the Solubility is the dissolved amount per volume that the medium holds. A higher Solubility goes with much dissolved substance. By pIC50 is commonly meant −log10 of the IC50, conventionally taken in molar units.
